The source of these data is patent US4906618A, “Prophylactic and therapeutic agent against swine dysentery” (Fujisawa Pharmaceutical Co., Ltd., priority 1986, dated 1990).

Each structure is given as a SMILES string. Where two headings read alike, the source gives them in different places.

Data set [1] in a line: Growth promoting effect in male broiler chickens. The format is in vivo, male broiler chickens (chunky). The conditions noted are these: for Average body weight gain at one week after the feeding: control 95.3; for Average final body weight at one week after the feeding: control 183.8; for Efficiency of feed utilization: one week, control 2.02. From the text: 8-Days-old male broiler chickens (chunky) were divided into 3 groups i.e. 2 treatment groups and a control group, each group of which consisted of 10 chicks. They were fed continuously with the feed described in Table 8.
The above Basal ration II +

Data set [2] has as its system Treponema hyodysenteriae S5709. The data set can be described thus: Protective effect against experimental infection of Treponema hyodysenteriae in mice. The format is in vivo, mice (ddy). Particulars: 5 mg/kg, oral, once a day on first and second day after challenge, one week after infection. The protocol:
5 week-old mice (ddy, .male.) were used in these experiments. Mice were orally infected with 1.8×10^7 cells of Treponema hyodysenteriae S5709 grown for 96 hours on Trypticase soy agar plate supplemented with 5% sheep blood. On the first and second day after challenge, test compounds were given by oral administration once a day. One week after infection, the efficacy of the antibiotics on mice suffering from dysentery was determined as follows. Cecum contents from infected mice were suspended in 2 ml of saline solution, diluted twenty times with Trypticase soy medium supplemented with 5% sheep blood and cultured for T. hyodysenteriae on agar plate of Trypticase soy medium supplemented with 5% sheep blood at 37° C. for 72 hours in Gas Pak jars. The numbers of T. hyodysenteriae colony appeared on the plates were counted. Mice that gave no colony formations of T. hyodysenteriae were regarded as cured mice.

The test system of data set [3] is Treponema hyodysenteriae ATCC31212. Put plainly: Therapeutic effect on experimentally induced swine dysentery in piglets. The format is in vivo, piglets (Landace×Large White crossbred). The conditions noted are these: solution in water; for (average) days of disappearance of fecal T. h: detection limit 10^2 CFU/g of feces. The protocol:
Seven piglets, LW (Landace×Large White crossbred) male, were used. The initial body weight at the time of inoculation of infective materials ranged from 6.5 to 8.5 kg. Piglets were divided into 4 groups ([…] and 1 group of 1 head) and were maintained in stainless cages (90×90 cm) with raised plastic net floors at 28±2° C. Feed [Milk replacer for piglet] and water were supplied ad libitum except the duration of fasting. Infective materials used were prepared as follows. A total of 300 g of mucous haemorrhagic feces, large intestinal (from caecum through rectum) contents, and mucosa obtained from a clinically affected pig (3 days after onset of swine dysentery), which was previously inoculated into its caecum with pure culture of Treponema hyodysenteriae ATCC31212 (about 3×10^9 colony forming units/head) by surgical operation, were suspended, diluted finally 2.5 times with phosphate-bufferized saline and minced by biotron homogenizer (trademark, made by Biotrona Co., Ltd.).
For the purpose of infection, all piglets were inoculated individually with about 90 g of the infective materials after 22 hours' fasting.
Treatment were done once a day for 2 consecutive days from the 5th day post inoculation.

Data set [4] can be described thus: Growth promoting effect in pigs. The format is in vivo, pigs (LWD strain). The conditions noted are these: for Efficiency of feed utilization: 6 weeks, control 2.19; for Average body weight gain at the 6th week after the feeding: control 18.0; for Average final body weight at the 6th week after the starting of the feeding: control 28.0. An excerpt:
Five sets of 24 pigs (33 days-old, LWD strain) were used. Each 24 pigs were divided into 4 groups, i.e. 3 treatment groups and a control group. Each group consisted of 3 barrows and 3 female pigs. They were fed continuously with the feed described in Table 6.
The above basal ration I +

The next data set concerns Treponema hyodysenteriae. Put plainly: In vitro activity (MIC) against Treponema hyodysenteriae, agar dilution. The format is cell-based. The conditions noted are these: for MIC: Brachyspira hyodysenteriae, read-out: MIC (minimum inhibitory concentration); for MIC (minimum inhibitory concentration): 72 hours anaerobic, 37° C. Here is the method:
The test organisms were grown anaerobically for 96 hours on Trypticase soy agar plate supplemented with 5% sheep blood. Appropriate amounts of physiological saline solution were poured into each agar plate to make a cell-suspension of test organism, which was finally adjusted at the cell density of 10^6 colony forming units (CFU)/ml. Freshly prepared Trypticase soy agar plates supplemented with 5% sheep blood which were containing serial two-fold dilutions of each of the compounds as mentioned below were inoculated with a loopful (about 5 μl) of the above-mentioned cell-suspension. The MIC (minimum inhibitory concentration) values were determined after 72 hours of anaerobical incubation at 37° C. in Gas Pak jars.

Data set [5] in a line: Acute toxicity test in mice. The format is in vivo, ddy mice. Particulars: single intravenous dose 20 mg (1 g/kg), five mice, 10 days of observation. The protocol: Further, in the acute toxicity test, each of five ddy mice (5-week old, male, 20 g in weight), was intraveneously given a single dose of WS-1627A, B, C or D 20 mg (lg/kg) and all survived.
For data set [6] the following is noted: background statement; cited from earlier work.
[7] abbreviates: Treatment group I, 10 ppm in feed.
[8] abbreviates: Treatment group II, 50 ppm in feed.
The mark [9] stands for this setting: intramuscularly 10 mg/kg body weight × 2 day, 1 pig.
[10] abbreviates: orally 2.5 mg/kg body weight × 2 day, 2 pigs.
The mark [11] stands for this setting: Treatment group II, 20 ppm in feed.
Setting [12] is: Treatment group III, 40 ppm in feed.

For `CC(=O)C1OC(Oc2ccc(C=C(C)C(=O)NC3C(O)C(O)C4OCOC4C3O)cc2O)C(O)C1O` (stereo not shown) [WS-1627B, hygromycin], the “Average body weight gain at one week after the feeding” value in data set [1] (setting [7]) turned out to be 116.5 g; in data set [1] (setting [8]), 121 g. Moreover, the “Average final body weight at one week after the feeding” value in data set [1] (setting [7]) was 204.5 g; in data set [1] (setting [8]) it was 209 g. In addition, the “Efficiency of feed utilization” value in data set [1] (setting [7]) is reported as 2.00; in data set [1] (setting [8]), 1.67; in data set [4] (setting [7]) it was 2.05; in data set [4] (setting [11]), 2.11; in data set [4] (setting [12]), 2.09. In addition, the cured/treated in data set [2] (listed as WS1627B) is listed as 7/7. The “(average) days of recovery to normal stool” value is given as 1 days in data set [3] (setting [9]) and 2 days in data set [3] (setting [10]). Moreover, the figures for the “(average) days of disappearance of fecal T. h” value in data set [3] (setting [9]) and in data set [3] (setting [10]) were 1 days and 2 days, respectively. Besides, the “Average body weight gain at the 6th week after the feeding” value in data set [4] (setting [7]) is 19.6 kg; in data set [4] (setting [11]), 19.2 kg; in data set [4] (setting [12]) it was 18.9 kg. The “Average final body weight at the 6th week after the starting of the feeding” value in data set [4] (setting [7]) was found to be 29.6 kg; in data set [4] (setting [11]) it was 29.2 kg; in data set [4] (setting [12]) it was 28.9 kg. Further, the MIC in the data set on Treponema hyodysenteriae (72 h) was less than 0.8 µg/mL; in the data set on Treponema hyodysenteriae (ATCC31212, 72 h), less than 0.8 µg/mL. For the same compound, the “antimicrobial activities against Treponema hyodysenteriae” value in the data set with Treponema hyodysenteriae (statement in words) is listed as “strong antimicrobial activities”. In addition, the “MIC (minimum inhibitory concentration)” value against Treponema hyodysenteriae (strain S5709) and in the data set with Treponema hyodysenteriae (strain TH81013) was less than 0.8 µg/mL in each case. Besides, in data set [5], the survival result was “all survived”. For the same compound, the toxic symptom entry in data set [5] is listed as “no toxic symptom was observed”. For the same compound, the Solubility result in the data set “Solubility” (acetone) is recorded as “Insoluble”; in “Solubility” (chloroform) it was “Insoluble”; in “Solubility” (ethyl acetate), “Insoluble”; in “Solubility” (methanol), “Soluble”; in the data set “Solubility” (water) it was “Soluble”.

As for `CC(=O)C1OC(Oc2ccc(C=C(C)C(=O)NC3C(O)C(O)C4OCOC4C3O)cc2O)C(O)C1O` (stereo not drawn) [WS-1627D, epi-hygromycin], the cured/treated in data set [2] (listed as WS1627D) is given as 4/7.

Turning to `COC(=O)N/N=C/c1c[n+]([O-])c2ccccc2[n+]1[O-]` [carbadox], the mutagenicity result in data set [6] is given as “strong mutagenic substance”.
